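Protocol summary: plate cells (96-well), add compound at 5 concentrations, incubate 48 h, interpolate endpoints linearly. TGI is the concentration that stops growth completely.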
How the values were obtained:
Experiment in all cases: growth of human tumour cells (NCI), 48 h
A498 renal = system: A498 renal
BT-549 breast = system: BT-549 breast
CAKI-1 renal = system: CAKI-1 renal
COLO 205 colon = system: COLO 205 colon
M14 melanoma = system: M14 melanoma
MALME-3M melanoma = system: MALME-3M melanoma
MCF7 breast = system: MCF7 breast
NCI-H522 lung = system: NCI-H522 lung
OVCAR-3 ovarian = system: OVCAR-3 ovarian
OVCAR-4 ovarian = system: OVCAR-4 ovarian
RPMI-8226 leukemia = system: RPMI-8226 leukemia
SNB-19 CNS = system: SNB-19 CNS
UACC-257 melanoma = system: UACC-257 melanoma
LOX IMVI melanoma = system: LOX IMVI melanoma

SMILES	TGI (A498 renal)	TGI (BT-549 breast)	TGI (CAKI-1 renal)	TGI (COLO 205 colon)	TGI (M14 melanoma)	TGI (MALME-3M melanoma)	TGI (MCF7 breast)	TGI (NCI-H522 lung)	TGI (OVCAR-3 ovarian)	TGI (OVCAR-4 ovarian)	TGI (RPMI-8226 leukemia)	TGI (SNB-19 CNS)	TGI (UACC-257 melanoma)	TGI (LOX IMVI melanoma)
N#CC(C#N)=Cc1ccc(C=C2SC3=C(SCCS3)S2)s1	42.7 µM	15.2 µM	> 100 µM	> 100 µM	> 100 µM	> 100 µM	> 100 µM	> 100 µM	> 100 µM	> 100 µM	6.28 µM	> 100 µM	> 100 µM	
CCn1c(-c2ccccc2)nc2c1C(=O)c1ccccc1C2=O		60.6 µM		91.1 µM	54 µM	21.7 µM	> 100 µM	43 µM	49.5 µM	30 µM	> 100 µM	> 100 µM		
O=C(Nc1ccccc1)Nn1c(-c2cccs2)nc2ccc(I)cc2c1=O		39 µM	53.3 µM	53.4 µM	> 100 µM		87.7 µM	44.7 µM	31.8 µM	90.4 µM	51.8 µM	> 100 µM	65.9 µM	49.1 µM
C=CCOC(=O)CCCCCCCCCCCCCCCOC(=O)c1c(CCC[C@@H](C)O[Si](C)(C)C(C)(C)C)nc(=O)n2c1CC[C@H]2CC1(CC/C=C\[C@H](CC)O[Si](C(C)C)(C(C)C)C(C)C)OCCO1	> 100 µM	> 100 µM	> 100 µM	> 100 µM	> 100 µM	> 100 µM	> 100 µM	> 100 µM	> 100 µM	> 100 µM	> 100 µM	> 100 µM	> 100 µM	
c1nc(SSc2ncnc3nc[nH]c23)c2[nH]cnc2n1	> 100 µM	> 100 µM	1.07 µM	> 100 µM	> 68.7 µM	18.5 µM		> 100 µM	> 33.6 µM	> 100 µM	> 100 µM	> 100 µM	> 100 µM	20.4 µM
c1cc2cc(c1)CN1CCNCCN(CCNCC1)Cc1cccc(c1)CN1CCNCCN(CCNCC1)C2	> 100 µM	> 100 µM		> 100 µM	> 100 µM	> 100 µM	> 100 µM		> 100 µM	> 100 µM	> 100 µM	> 100 µM	> 100 µM	> 100 µM
O=C(O)C(Cc1cnc[nH]1)N=Cc1nc(-c2ccccc2)oc1O (stereo not given)	> 100 µM			> 100 µM	> 100 µM	> 100 µM		> 100 µM	> 100 µM	> 100 µM	> 100 µM	> 100 µM	> 100 µM	> 100 µM
COC(=O)c1cc(-c2ccc(-c3ccc(O)cc3)cc2)cc(-c2ccc(-c3ccc(O)cc3)cc2)c1	34.7 µM	26.6 µM	29.5 µM	31 µM	30.5 µM		25.9 µM	8.66 µM	25.6 µM	35.9 µM	27.5 µM	32.8 µM	33.3 µM	18.4 µM
CN(C)CS/C(N)=N\C(O)C(Cl)(Cl)Cl (stereo not given)	> 100 µM	> 100 µM	> 100 µM		> 100 µM	> 100 µM		> 100 µM	> 100 µM	> 100 µM		> 100 µM	> 100 µM	> 100 µM
Cc1cc(N(CCC#N)CCC#N)ccc1/C(N=Nc1ccccc1)=N\NC(=O)c1ccccc1	93.7 µM	77.4 µM	72.6 µM	53.6 µM	> 100 µM	> 100 µM	> 100 µM	35.3 µM	> 100 µM	> 100 µM	> 100 µM	> 100 µM	> 100 µM	
Cc1ccc(S(=O)C[C@@]2(C(F)F)NC(=O)NC2=O)cc1 (stereo not given in full)	> 100 µM	> 100 µM	> 100 µM	> 100 µM	> 100 µM	> 100 µM		> 100 µM	> 100 µM	> 100 µM	> 100 µM	> 100 µM	> 100 µM	> 100 µM
COc1ccccc1-c1nc2ccccc2c(=O)[nH]1	> 100 µM	> 100 µM	> 100 µM	> 100 µM	> 100 µM	> 100 µM	> 100 µM		> 100 µM	> 100 µM	> 100 µM	> 100 µM	> 100 µM	
CC(=O)Nc1ccc(S(=O)(=O)[N-]C2C(=O)c3ccccc3C(=O)C2[n+]2ccccc2)cc1 (stereo not given)		13.4 µM	> 100 µM	> 100 µM	27.4 µM	25.1 µM	31.8 µM	92.7 µM	32.3 µM	28.9 µM	> 100 µM	27.3 µM	29.5 µM	> 100 µM
CCN(CC)CCNc1ccc2ncn3c4c(OC)cccc4c(=O)c1c23	33.4 µM		> 100 µM	16.5 µM	20.9 µM	21.4 µM		20.7 µM	50.9 µM	15.4 µM		46.3 µM	69.2 µM	
O=c1oc2cccnc2n1CCN1CCN(c2ccc(Oc3ccccc3)cc2)CC1	> 100 µM		> 100 µM		> 100 µM	> 100 µM	> 100 µM	> 100 µM	> 100 µM	75.4 µM	> 100 µM	> 100 µM	> 100 µM	> 100 µM
Nc1ccc(C(=O)NN2C(=O)C(Cl)C2c2ccc([N+](=O)[O-])cc2)cc1 (stereo not given)	38.6 µM		36.1 µM	29.1 µM	26.5 µM	25 µM		3.21 µM	18.4 µM	26.4 µM	42.8 µM	26 µM	31.2 µM	5.2 µM
C[N+](C)(C)C1(C(=O)[O-])CC1	> 100 µM				> 100 µM	> 100 µM	> 100 µM	> 100 µM	> 100 µM	> 100 µM	> 100 µM	> 100 µM	> 100 µM	> 100 µM
NC(CCCCN=Cc1nc(-c2ccccc2)oc1O)C(=O)O (stereo not given)	> 100 µM			> 100 µM	> 100 µM	> 100 µM		> 100 µM	> 100 µM	> 100 µM	> 100 µM	> 100 µM	> 100 µM	> 100 µM

From PubChem BioAssay (NCI)
